From patent US20250059183A1, “PYRIDINE[4,3-D]PYRIMIDINE COMPOUND AS TLR7/8 AGONIST” (SHANGHAI VISONPHARMA CO., LTD., priority 2021, published 2025)

Assays:
human TLR8 = molecular target: T1, human TLR8 (Homo sapiens, UniProt Q9NR97); test: HEK-Blue hTLR8 SEAP reporter gene agonist assay; type: cell-based; conditions: HEK-Blue hTLR8 cells, 16 to 22 hours incubation
T1 construct: host or cells: HEK-Blue hTLR8 (HEK293-derived reporter cells)
T1 sequence (Q9NR97 27-1041): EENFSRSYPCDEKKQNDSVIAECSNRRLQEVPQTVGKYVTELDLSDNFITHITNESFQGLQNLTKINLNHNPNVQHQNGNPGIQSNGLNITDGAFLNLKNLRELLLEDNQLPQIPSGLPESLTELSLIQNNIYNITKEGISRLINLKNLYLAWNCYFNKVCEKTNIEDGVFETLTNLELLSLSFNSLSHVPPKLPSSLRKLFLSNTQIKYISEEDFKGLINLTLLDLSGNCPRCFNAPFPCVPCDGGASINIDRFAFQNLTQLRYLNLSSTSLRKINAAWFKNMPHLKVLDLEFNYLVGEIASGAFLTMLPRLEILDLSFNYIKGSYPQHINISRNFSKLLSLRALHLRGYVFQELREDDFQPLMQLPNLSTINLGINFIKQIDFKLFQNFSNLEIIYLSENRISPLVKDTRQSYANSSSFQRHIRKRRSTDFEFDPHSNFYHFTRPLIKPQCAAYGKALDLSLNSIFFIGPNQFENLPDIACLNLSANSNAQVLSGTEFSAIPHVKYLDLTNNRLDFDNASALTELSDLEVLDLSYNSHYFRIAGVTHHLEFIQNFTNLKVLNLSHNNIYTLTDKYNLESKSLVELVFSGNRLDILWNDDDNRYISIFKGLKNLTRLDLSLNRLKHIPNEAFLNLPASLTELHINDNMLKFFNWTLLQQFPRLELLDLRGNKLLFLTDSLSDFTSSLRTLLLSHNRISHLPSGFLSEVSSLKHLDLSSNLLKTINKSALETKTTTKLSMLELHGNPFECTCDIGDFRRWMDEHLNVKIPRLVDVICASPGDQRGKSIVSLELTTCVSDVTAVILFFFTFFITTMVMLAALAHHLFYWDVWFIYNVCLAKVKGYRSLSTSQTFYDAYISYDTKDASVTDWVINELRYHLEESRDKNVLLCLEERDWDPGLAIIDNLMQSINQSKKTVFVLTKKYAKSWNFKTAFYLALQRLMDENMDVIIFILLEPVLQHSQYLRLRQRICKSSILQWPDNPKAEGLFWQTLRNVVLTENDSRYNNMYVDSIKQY
Protocol: (§1) HEK-Blue™ cells that stably express human TLR7 or TLR8 are used to evaluate the agonistic activity of the compounds on TLR7 or TLR8, which is determined by the induction of the expression of SEAP reporter gene under the control of minimum IFN-β promoter fusion to 5×NF-κB and AP-1 binding sites. The assay is conducted as below:
(§2) HEK-Blue™ hTLR7 (Invivogen, 80,000 cells per well) or HEK-Blue™ hTLR8 (Invivogen, 60,000 cells per well) were added to the 96-well cell culture plate, followed by adding of the test compound. The final concentration of the test compound in the medium ranged from […], and was incubated for 16 to 22 hours. According to the manufacturer's instructions, the HEK-Blue assay reagent Quanti-blue (Invivogen) was used to measure SEAP levels in cell media. Optical density at 650 nm (OD650) was measured by Neo2 multifunction plate reader (Bio-tek). The half effective concentration (EC50) was calculated using GraphPad Prism.

human TLR7 = molecular target: T2, human TLR7 (Homo sapiens, UniProt Q9NYK1); test: HEK-Blue hTLR7 SEAP reporter gene agonist assay; type: cell-based; conditions: HEK-Blue hTLR7 cells, 16 to 22 hours incubation
T2 construct: host or cells: HEK-Blue hTLR7 (HEK293-derived reporter cells)
T2 sequence (Q9NYK1 27-1049): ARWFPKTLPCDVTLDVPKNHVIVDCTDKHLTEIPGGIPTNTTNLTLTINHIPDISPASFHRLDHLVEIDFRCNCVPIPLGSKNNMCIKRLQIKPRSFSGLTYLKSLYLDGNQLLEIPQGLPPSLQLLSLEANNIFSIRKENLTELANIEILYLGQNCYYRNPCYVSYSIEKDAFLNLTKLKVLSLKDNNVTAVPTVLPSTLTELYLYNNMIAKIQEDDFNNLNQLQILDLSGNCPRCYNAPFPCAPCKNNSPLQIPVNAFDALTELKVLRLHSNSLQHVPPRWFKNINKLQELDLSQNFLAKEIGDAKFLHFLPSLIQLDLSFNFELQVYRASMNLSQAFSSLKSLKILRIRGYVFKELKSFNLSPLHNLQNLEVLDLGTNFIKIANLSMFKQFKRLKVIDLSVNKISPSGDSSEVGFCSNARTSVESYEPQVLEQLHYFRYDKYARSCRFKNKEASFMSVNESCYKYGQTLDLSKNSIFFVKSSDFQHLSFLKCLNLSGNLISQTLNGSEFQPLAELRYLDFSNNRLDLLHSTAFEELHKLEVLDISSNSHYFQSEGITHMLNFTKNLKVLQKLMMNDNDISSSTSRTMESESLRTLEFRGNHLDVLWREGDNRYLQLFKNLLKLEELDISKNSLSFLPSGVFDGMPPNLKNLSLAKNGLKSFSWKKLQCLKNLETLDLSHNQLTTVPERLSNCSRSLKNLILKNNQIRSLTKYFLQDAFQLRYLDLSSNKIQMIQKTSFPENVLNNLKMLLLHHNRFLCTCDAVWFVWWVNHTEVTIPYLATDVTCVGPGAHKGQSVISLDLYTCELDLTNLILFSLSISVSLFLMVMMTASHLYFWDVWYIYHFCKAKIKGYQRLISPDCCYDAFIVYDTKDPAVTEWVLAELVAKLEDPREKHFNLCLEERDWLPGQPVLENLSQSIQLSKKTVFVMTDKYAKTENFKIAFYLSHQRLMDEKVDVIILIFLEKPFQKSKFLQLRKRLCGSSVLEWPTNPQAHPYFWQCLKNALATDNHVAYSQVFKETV
Protocol: as §1, §2

Row | EC50 (human TLR8) | EC50 (human TLR7) | SMILES
1 | 97 nM |  | CCCC(C)Nc1nc(N)nc2ccn(Cc3ccc(CN4CCCC4)cc3)c(=O)c12 (stereo not shown) [Compound I-12, 2-amino-4-(pentan-2-ylamino)-6-(4-(pyrrolidin-1-ylmethyl)benzyl)pyrido[4,3-d]pyrimidin-5(6H)-one]
2 | 55 nM |  | CCCCNc1nc(N)nc2ccn(Cc3ccc(C(=O)N4CC5CC(C4)N5)cc3)c(=O)c12 [Compound I-19, 6-(4-(3,6-diazabicyclo[3.1.1]heptane-3-carbonyl)benzyl)-2-amino-4-(butylamino)pyri do[4,3-d]pyrimidin-5(6H)-one]
3 | 51 nM |  | COCCNc1nc(N)nc2ccn(Cc3ccc(CN4CCCC4)cc3)c(=O)c12 [Compound I-21, 2-amino-4-((2-methoxyethyl)amino)-6-(4-(pyrrolidin-1-ylmethyl)benzyl)pyrido[4,3-d]pyrimidin-5(6H)-one]
4 | 95 nM |  | CCCCNc1nc(N)nc2ccn(Cc3ccc(CN4CCCC4)c(F)c3)c(=O)c12 [Compound I-27, 2-amino-4-(butylamino)-6-(3-fluoro-4-(pyrrolidin-1-ylmethyl)benzyl)pyrido[4,3-d]pyrimidin-5(6H)-one]
5 | 45 nM |  | CCCCNc1nc(N)nc2ccn(Cc3ccc(CNCCO)cc3)c(=O)c12 [Compound I-34, 2-amino-4-(butylamino)-6-(4-(((2-hydroxyethyl)amino)methyl)benzyl)pyrido[4,3-d]pyrimidin-5(6H)-one]
6 | 51 nM |  | CCCCNc1nc(N)nc2ccn(Cc3ccc(CN(CCO)CCO)cc3)c(=O)c12 [Compound I-50, 2-amino-6-(4-((bis(2-hydroxyethyl)amino)methyl)benzyl)-4-(butylamino)pyrido[4,3-d]pyrimidin-5(6H)-one]
7 |  | 82 nM | CCCCNc1nc(N)nc2ccn(Cc3ccc(C(=O)N4CCN(C)CC4)cc3)c(=O)c12 [Compound I-63, 2-amino-4-(butylamino)-6-(4-(4-methylpiperazine-1-carbonyl)benzyl)pyrido[4,3-d]pyrimidin-5(6H)-one]
8 |  | 67 nM | CCCCNc1nc(N)nc2ccn(Cc3ccc(CN4CCCC4)nc3OC)c(=O)c12 [Compound I-64, 2-amino-4-(butylamino)-6-((2-methoxy-6-(pyrrolidin-1-ylmethyl)pyridin-3-yl)methyl)pyrido[4,3-d]pyrimidin-5(6H)-one]
9 |  | 41 nM | CCCCNc1nc(N)nc2ccn(Cc3ccc(C(=O)N4CCN(C)CC4)cc3OC)c(=O)c12 [Compound I-73, 2-amino-4-(butylamino)-6-(2-methoxy-4-(4-methylpiperazine-1-carbonyl)benzyl)pyrido[4,3-d]pyrimidin-5(6H1)-one]
10 |  | 86 nM | CCCC(CCC)Nc1nc(N)nc2ccn(Cc3ccc(C(=O)N4CCN(C)CC4)cc3)c(=O)c12 [Compound I-114, 2-amino-4-(heptan-4-ylamino)-6-(4-(4-methylpiperazine-1-carbonyl)benzyl)pyrido[4,3-d]pyrimidin-5(6H)-one]
11 | 66 nM |  | CCCCNc1nc(N)nc2ccn(Cc3ccc(CN4CCCC4)cn3)c(=O)c12 [Compound I-128, 2-amino-4-(butylamino)-6-((5-(pyrrolidin-1-ylmethyl)pyridin-2-yl)methyl)pyrido[4,3-d]pyrimidin-5(6H)-one]
12 | 77 nM |  | CCCCNc1nc(N)nc2ccn(Cc3cnc(CN4CCCC4)cn3)c(=O)c12 [Compound I-129, 2-amino-4-(butylamino)-6-((5-(pyrrolidin-1-ylmethyl)pyrazin-2-yl)methyl)pyrido[4,3-d]pyrimidin-5(6H)-one]
13 |  | 70 nM | CCCC(CCC)Nc1nc(N)nc2ccn(Cc3ccc(C(=O)N4CCN(C)CC4)cc3OC)c(=O)c12 [Compound I-133, 2-amino-4-(heptan-4-ylamino)-6-(2-methoxy-4-(4-methylpiperazine-1-carbonyl)benzyl)pyrido[4,3-d]pyrimidin-5(6H)-one]
14 |  | 70 nM | CCCC(CCC)Nc1nc(N)nc2ccn(Cc3ccc(C(=O)N4CCN(CCO)CC4)cc3OC)c(=O)c12 [Compound I-136, 2-amino-4-(heptan-4-ylamino)-6-(4-(4-(2-hydroxyethyl)piperazine-1-carbonyl)-2-methoxybenzyl)pyrido[4,3-d]pyrimidin-5(6H)-one]
15 | 30 nM |  | CCC[C@@H](C)Nc1nc(N)nc2ccn(Cc3ccc(CN(CCC)CCO)cc3)c(=O)c12 [Compound I-140, (R)-2-amino-6-(4-(((2-hydroxyethyl)(propyl)amino)methyl)benzyl)-4-(pentan-2-ylamino)pyrido[4,3-d]pyrimidin-5(6H)-one]
16 | 29 nM |  | CCC[C@@H](C)Nc1nc(N)nc2ccn(Cc3ccc(CN4CC5(COC5)C4)nc3OC)c(=O)c12 [Compound I-188, (R)-6-((6-((2-oxa-6-azaspiro[3.3]heptan-6-yl)methyl)-2-methoxypyridin-3-yl)methyl)-2-amino-4-(pentan-2-ylamino)pyrido[4,3-d]pyrimidin-5(6H)-one]
17 | 18 nM |  | CCC[C@@H](CO)Nc1nc(N)nc2ccn(Cc3ccc(CN4CCNCC4)cc3OC)c(=O)c12 [Compound I-191, (S)-2-amino-4-((1-hydroxypentan-2-yl)amino)-6-(2-methoxy-4-(piperazin-1-ylmethyl)benzyl)pyrido[4,3-d]pyrimidin-5(6H)-one]
18 | 44 nM |  | CCC[C@@H](CO)Nc1nc(N)nc2ccn(Cc3ccc(CN4CCN(CCN)CC4)cc3OC)c(=O)c12 [Compound I-207, (S)-2-amino-6-(4-((4-(2-aminoethyl)piperazin-1-yl)methyl)-2-methoxybenzyl)-4-((1-hydroxypentan-2-yl)amino)pyrido[4,3-d]pyrimidin-5(6H)-one]
19 | 70 nM |  | CCC[C@@H](CO)Nc1nc(N)nc2ccn(Cc3ccc(CN(C)CCN)cc3OC)c(=O)c12 [Compound I-208]
20 | 30 nM |  | CCCCCCCCCC(=O)OC[C@H](CCC)Nc1nc(N)nc2ccn(Cc3ccc(CN4CCN(C)CC4)cc3OC)c(=O)c12 [Compound I-221]
21 | 9 nM |  | CCCCCCCCCCCCCCCC(=O)OC[C@H](CCC)Nc1nc(N)nc2ccn(Cc3ccc(CN4CCN(C)CC4)cc3OC)c(=O)c12 [Compound I-222]
22 | 73 nM |  | CCCCOC(=O)OC[C@H](CCC)Nc1nc(N)nc2ccn(Cc3ccc(CN4CCN(C)CC4)cc3OC)c(=O)c12 [Compound I-226]
